Reference: patent US8435978B2, “Substituted sulfonamide compounds” (Gruenenthal GmbH, priority 2006, dated 2013)

Columns and labels:
human B1R receptor = molecular target: T1, human B1R receptor (Homo sapiens, UniProt P46663); test: Functional study on the bradykinin receptor 1 (B1R), FLIPR Ca2+ assay, hB1R cells; assay type: cell-based; details: agonist Lys-Des-Arg9-bradykinin 0.5 nM, % inhibition compared with the maximum achievable inhibition; for inhibition at 10 µM: CHO-K1, test substance 10 μM, read-out: B1R Antagonism, human [10 μM] % Inhibition
T1 construct: host or cells: CHO K1 cells (Chinese hamster ovary), stably transfected
T1 sequence (P46663 1-353): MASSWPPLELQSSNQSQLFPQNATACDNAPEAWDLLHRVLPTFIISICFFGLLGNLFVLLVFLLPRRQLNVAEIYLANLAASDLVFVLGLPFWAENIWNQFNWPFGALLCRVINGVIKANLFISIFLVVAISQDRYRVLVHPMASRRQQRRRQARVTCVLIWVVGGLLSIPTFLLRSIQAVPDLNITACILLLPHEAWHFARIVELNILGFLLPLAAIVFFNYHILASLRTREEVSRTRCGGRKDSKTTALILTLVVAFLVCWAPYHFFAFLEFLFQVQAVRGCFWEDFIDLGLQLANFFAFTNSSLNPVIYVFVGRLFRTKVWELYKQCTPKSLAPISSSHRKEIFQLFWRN
How it was run: (§1)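 FLIPR Ca2+ read-out (Fluo-4, peak fluorescence) in stably transfected CHO K1 cells. Compounds at 10 μM, then 10 min later agonist challenge: human B1R with Lys-Des-Arg9-bradykinin 0.5 nM, rat B1R with Des-Arg9-bradykinin 100 nM; reported as % activation or % of maximal inhibition.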

B1R receptor of the rat = molecular target: T2, B1R receptor of the rat (Rattus norvegicus, UniProt P97583); test: Functional study on the bradykinin receptor 1 (B1R), FLIPR Ca2+ assay, rB1R cells; assay type: cell-based; details: agonist Des-Arg9-bradykinin 100 nM, % inhibition compared with the maximum achievable inhibition; for inhibition at 10 µM: CHO-K1, test substance 10 μM, read-out: B1R Antagonism, rat [10 μM] % Inhibition
T2 construct: host or cells: CHO K1 cells (Chinese hamster ovary), stably transfected
T2 sequence (P97583 1-337): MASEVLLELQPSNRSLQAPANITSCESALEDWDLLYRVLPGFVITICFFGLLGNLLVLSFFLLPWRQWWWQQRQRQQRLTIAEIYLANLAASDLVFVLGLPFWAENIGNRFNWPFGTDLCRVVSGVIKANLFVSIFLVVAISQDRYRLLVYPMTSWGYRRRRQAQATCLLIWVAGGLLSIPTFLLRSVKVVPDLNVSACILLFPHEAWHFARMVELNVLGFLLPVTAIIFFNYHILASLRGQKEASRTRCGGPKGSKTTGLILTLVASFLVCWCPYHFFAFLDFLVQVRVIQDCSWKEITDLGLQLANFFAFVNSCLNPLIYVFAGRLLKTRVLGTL
How it was run: as §1

inhibition at 10 µM (human B1R receptor) [%]	inhibition at 10 µM (B1R receptor of the rat) [%]	B1R Antagonism, human [10 μM] % Inhibition (human B1R receptor; test substance 10 μM, hB1R CHO K1 cells) [%]	B1R Antagonism, rat [10 μM] % Inhibition (B1R receptor of the rat; test substance 10 μM, rB1R CHO K1 cells) [%]	SMILES
40.2	102			COc1cc(C)c(S(=O)(=O)N2CCCCC2COCC(=O)N2CCN(Cc3c(C)cc(C)cc3C)CC2)c(C)c1 (stereo not shown) [Example 383, 2-((1-(4-methoxy-2,6-dimethylphenylsulfonyl)piperidin-2-yl)methoxy)-1-(4-(2,4,6-trimethylbenzyl)piperazin-1-yl)ethanone]
80.7	99.2			COc1ccc(CN2CCN(C(=O)COCC3CCCN3S(=O)(=O)c3c(Cl)cccc3Cl)CC2)cc1 (stereo not shown) [Example 451, 2-((1-(2,6-dichlorophenylsulfonyl)pyrrolidin-2-yl)methoxy)-1-(4-(4-methoxybenzyl)piperazin-1-yl)ethanone]
100	98.8			COc1cc(C)c(S(=O)(=O)N2CCCCC2COCC(=O)NCc2ccc(Oc3cnccn3)cc2)c(C)c1 (stereo not shown) [Example 196, 2-((1-(4-methoxy-2,6-dimethylphenylsulfonyl)piperidin-2-yl)methoxy)-N-(4-(pyrazin-2-yloxy)benzyl)acetamide]
105	100			COc1cc(C)c(S(=O)(=O)N2CCCCC2COCC(=O)N2CCC(c3nc(-c4ccncc4)no3)CC2)c(C)c1 (stereo not shown) [Example 103, 2-((1-(4-methoxy-2,6-dimethylphenylsulfonyl)piperidin-2-yl)methoxy)-1-(4-(3-(pyridin-4-yl)-1,2,4-oxadiazol-5-yl)piperidin-1-yl)ethanone]
53.2	95.2			O=C(COCC1CCCN1S(=O)(=O)c1c(Cl)cc(Cl)cc1Cl)NCc1ccc(N2CCCCC2)cc1 (stereo not shown) [Example 71, N-(4-piperidin-1-yl-benzyl)-2-[1-(2,4,6-trichloro-phenylsulfonyl)-pyrrolidin-2-yl-methoxy]-acetamide]
105	101			COc1cc(OC)cc(N2CCN(C(=O)COCC3CCCCN3S(=O)(=O)c3c(C)cc(OC)cc3C)CC2)c1 (stereo not shown) [Example 340, 1-(4-(3,5-dimethoxyphenyl)piperazin-1-yl)-2-((1-(4-methoxy-2,6-dimethylphenylsulfonyl)piperidin-2-yl)methoxy)ethanone]
62.1	101			COc1cc(C)c(S(=O)(=O)N2CCCCC2COCC(=O)N(C)C(CN2CCOCC2)c2ccccc2)c(C)c1 (stereo not shown) [Example 368, 2-((1-(4-methoxy-2,6-dimethylphenylsulfonyl)piperidin-2-yl)methoxy)-N-methyl-N-(2-morpholino-1-phenylethyl)acetamide]
95	99.8			COc1cc(C)c(S(=O)(=O)N2CCCC2COCC(=O)N(C)C(CN2CCN(C)CC2)c2ccccc2)c(C)c1 (stereo not shown) [Example 446, 2-((1-(4-methoxy-2,6-dimethylphenylsulfonyl)pyrrolidin-2-yl)methoxy)-N-methyl-N-(2-(4-methylpiperazin-1-yl)-1-phenylethyl)acetamide]
96	92.5			CN1CCN(Cc2ccc(CNC(=O)COCC3CCCCN3S(=O)(=O)c3c(Cl)cc(Cl)cc3Cl)cc2)CC1 (stereo not shown) [Example 15, N-[4-(4-methyl-piperazin-1-ylmethyl)-benzyl]-2-[1-(2,4,6-trichloro-phenylsulfonyl)-piperidin-2-ylmethoxy]-acetamide]
104	104			COc1cc(C)c(S(=O)(=O)N2CCCC2COCC(=O)N2CCN(Cc3ccc(Cl)cc3)CC2)c(C)c1 (stereo not shown) [Example 352, 1-(4-(4-chlorobenzyl)piperazin-1-yl)-2-((1-(4-methoxy-2,6-dimethylphenylsulfonyl)pyrrolidin-2-yl)methoxy)ethanone]
102	98.2			COc1cc(C)c(S(=O)(=O)N2CCCCC2COCC(=O)N2CCN(C3CCC(C(F)(F)F)CC3)CC2)c(C)c1 (stereo not shown) [Example 134, 2-((1-(4-methoxy-2,6-dimethylphenylsulfonyl)piperidin-2-yl)methoxy)-1-(4-(4-(trifluoromethyl)cyclohexyl)piperazin-1-yl)ethanone]

The remaining lines, values behind:

SMILES	inhibition at 10 µM (human B1R receptor) [%]	inhibition at 10 µM (B1R receptor of the rat) [%]	B1R Antagonism, human [10 μM] % Inhibition (human B1R receptor; test substance 10 μM, hB1R CHO K1 cells) [%]	B1R Antagonism, rat [10 μM] % Inhibition (B1R receptor of the rat; test substance 10 μM, rB1R CHO K1 cells) [%]
COc1cc(C)c(S(=O)(=O)N2CCCC2COCC(=O)NCc2ccc(CN3CCOCC3)cc2)c(C)c1 (stereo not shown) [Example 55, 2-[1-(4-methoxy-2,6-dimethyl-phenylsulfonyl)-pyrrolidin-2-ylmethoxy]-N-(4-morpholin-4-ylmethyl-benzyl)-acetamide]	63.2	88.8		
COc1cc(C)c(S(=O)(=O)N2CCCCC2COCC(=O)N2CCN(c3ncc(C(F)(F)F)cc3Cl)CC2)c(C)c1 (stereo not shown) [Example 376, 1-(4-(3-chloro-5-(trifluoromethyl)pyridin-2-yl)piperazin-1-yl)-2-((1-(4-methoxy-2,6-dimethylphenylsulfonyl)piperidin-2-yl)methoxy)ethanone]	67.1	99		
Cc1cc(C)nc(CC2CCCN2C(=O)COCC2CCCCN2S(=O)(=O)c2c(Cl)cccc2Cl)c1 (stereo not shown) [Example 457, 2-((1-(2,6-dichlorophenylsulfonyl)piperidin-2-yl)methoxy)-1-(2-((4,6-dimethylpyridin-2-yl)methyl)pyrrolidin-1-yl)ethanone]	102	99.7		
CN(CCC1CCC(N(C)C)CC1)C(=O)COCC1CCc2ccccc2N1S(=O)(=O)c1ccc(Cl)c(Cl)c1 (stereo not shown) [Example 213, 2-((1-(3,4-dichlorophenylsulfonyl)-1,2,3,4-tetrahydroquinolin-2-yl)methoxy)-N-(2-(4-(dimethylamino)cyclohexyl)ethyl)-N-methylacetamide]	59.7	94.5		
COc1cc(C)c(S(=O)(=O)N2CCCC2COCC(=O)N2CCN(C3CCN(C)CC3)CC2)c(C)c1 (stereo not shown) [Example 192, 2-((1-(4-methoxy-2,6-dimethylphenylsulfonyl)pyrrolidin-2-yl)methoxy)-1-(4-(1-methylpiperidin-4-yl)piperazin-1-yl)ethanone]	106	100		
O=C(COCC1CCCCN1S(=O)(=O)c1cccc2ccccc12)NCc1ccc(CN2CCOCC2)cc1 (stereo not shown) [Example 61, N-(4-morpholin-4-ylmethyl-benzyl)-2-[1-(naphthyl-1-sulfonyl)-piperidin-2-ylmethoxy]-acetamide]			59.7	30.54
O=C(COCC1Cc2ccccc2CN1S(=O)(=O)c1ccccc1)Nc1cccc(N2CCOCC2)c1 (stereo not shown) [Example 264, N-(3-morpholinophenyl)-2-((2-(phenylsulfonyl)-1,2,3,4-tetrahydroisoquinolin-3-yl)methoxy)acetamide]	103	31.7		
O=C(COCC1CCCCN1S(=O)(=O)c1c(Cl)cccc1Cl)N1CCN(c2nc3ccccc3s2)CC1 (stereo not shown) [Example 553, 1-(4-(benzo[d]thiazol-2-yl)piperazin-1-yl)-2-((1-(2,6-dichlorophenylsulfonyl)piperidin-2-yl)methoxy)ethanone]	54.1	101		
COc1cc(C)c(S(=O)(=O)N2CCCC2COCC(=O)N2CCN(c3ncccc3C#N)CC2)c(C)c1 (stereo not shown) [Example 312, 2-(4-(2-((1-(4-methoxy-2,6-dimethylphenylsulfonyl)pyrrolidin-2-yl)methoxy)acetyl)piperazin-1-yl)nicotinonitrile]	98.5	98.7		
Cc1cc(C)c(S(=O)(=O)N2Cc3ccccc3CC2COCC(=O)N2CCN(C3CCN(C)CC3)CC2)c(C)c1 (stereo not shown) [Example 5, 1-[4-(1-methyl-piperidin-4-yl)-piperazin-1-yl]-2-[2-(2,4,6-trimethyl-phenylsulfonyl)-1,2,3,4-tetrahydro-isoquinolin-3-ylmethoxy]-ethanone]	103	103		
COc1cc(C)c(S(=O)(=O)N2CCCC2COCC(=O)Nc2nc3ccccc3n2C)c(C)c1 (stereo not shown) [Example 504, 2-((1-(4-methoxy-2,6-dimethylphenylsulfonyl)pyrrolidin-2-yl)methoxy)-N-(1-methyl-1H-benzo[d]imidazol-2-yl)acetamide]	24.2	90.6		
O=C(COCC1CCCN1S(=O)(=O)c1c(Cl)cc(Cl)cc1Cl)N1CCN(c2ccncc2)CC1 (stereo not shown) [Example 335, 1-(4-(pyridin-4-yl)piperazin-1-yl)-2-((1-(2,4,6-trichlorophenylsulfonyl)pyrrolidin-2-yl)methoxy)ethanone]	106	99.8		
